Test results: ChEMBL document CHEMBL1201862, “PubChem BioAssay data set” (2004)
Blank lines part the entries; values can stand above or below the compound they belong to. Active and inactive are the calls of the source.

Experiments:
[1] = target: G-protein coupled receptor 55 (Homo sapiens, UniProt Q9Y2T6); assay: GPR55 agonists via beta-arrestin recruitment, primary screen, imaging, U2OS cells, beta-arrestin-GFP redistribution (AID 1961); format: functional
Ephrin type-A receptor 4 = Ephrin type-A receptor 4 (Mus musculus, UniProt Q03137); assay: inhibitors of EphA4 binding to KYL peptide, primary screen, biochemical, colorimetric, mouse EphA4 (AID 689); format: functional
[2] = target: T1, Ubiquitin-conjugating enzyme E2 N (Homo sapiens, UniProt P61088); format: functional
T1 sequence (P61088 whole entry): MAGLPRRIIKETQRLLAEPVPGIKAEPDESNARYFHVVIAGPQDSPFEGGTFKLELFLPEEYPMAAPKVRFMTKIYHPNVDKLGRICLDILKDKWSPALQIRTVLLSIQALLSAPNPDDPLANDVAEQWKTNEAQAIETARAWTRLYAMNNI

[3] = target: T2, Type-1 angiotensin II receptor (Homo sapiens, UniProt P30556); assay: AT1 receptor agonists, dose response, selectivity assay for APJ receptor agonist project, cell-based, uHTS hits (AID 488865); format: functional;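 further: beta-arrestin recruitment to AT1 measured by enzyme fragment complementation luminescence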
T2 sequence (P30556 whole entry): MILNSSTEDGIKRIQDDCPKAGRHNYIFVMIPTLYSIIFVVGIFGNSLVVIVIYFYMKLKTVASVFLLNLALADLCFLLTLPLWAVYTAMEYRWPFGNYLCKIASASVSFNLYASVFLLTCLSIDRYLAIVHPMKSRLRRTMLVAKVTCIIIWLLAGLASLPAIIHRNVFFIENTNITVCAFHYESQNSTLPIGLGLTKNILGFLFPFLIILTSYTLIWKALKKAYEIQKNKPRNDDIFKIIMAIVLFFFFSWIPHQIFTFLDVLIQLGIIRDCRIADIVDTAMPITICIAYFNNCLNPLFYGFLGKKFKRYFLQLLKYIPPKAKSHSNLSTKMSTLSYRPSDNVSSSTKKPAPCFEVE

[4] = target: T3, Heat shock factor protein 1 (Mus musculus, UniProt P38532); assay: inhibition of MG132-induced HSE-luciferase signal, confirmation, cell-based, NIH3T3, luminescence, dose retest (AID 2382); format: functional;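 further: NIH3T3 fibroblasts with HSF1-driven luciferase reporter stressed by proteasome inhibitor MG132; luminescence from HSF1-driven luciferase expression after 8 hours of MG132 stress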
T3 sequence (P38532 whole entry): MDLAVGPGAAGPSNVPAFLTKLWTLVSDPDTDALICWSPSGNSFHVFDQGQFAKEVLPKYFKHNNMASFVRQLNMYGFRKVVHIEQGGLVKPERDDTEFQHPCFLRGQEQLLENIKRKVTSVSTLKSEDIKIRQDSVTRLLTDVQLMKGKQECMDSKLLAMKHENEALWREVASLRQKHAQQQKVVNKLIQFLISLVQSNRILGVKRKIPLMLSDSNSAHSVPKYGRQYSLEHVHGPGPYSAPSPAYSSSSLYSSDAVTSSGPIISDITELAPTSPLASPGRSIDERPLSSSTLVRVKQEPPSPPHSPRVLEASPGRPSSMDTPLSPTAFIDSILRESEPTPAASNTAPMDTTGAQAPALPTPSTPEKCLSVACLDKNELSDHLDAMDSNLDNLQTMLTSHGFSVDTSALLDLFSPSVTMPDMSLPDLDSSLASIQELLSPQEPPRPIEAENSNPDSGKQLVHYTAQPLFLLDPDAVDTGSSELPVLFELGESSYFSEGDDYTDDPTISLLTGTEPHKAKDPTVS

INS1 = assay: beta cell apoptosis inhibitors, cytokine rescue, dose response, luminescence, retest (AID 449756); format: functional, cell-based; conditions: Rattus norvegicus;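 further: cell death triggered by IL-1 beta plus TNF-alpha plus IFN-gamma mixture; protective hits raise ATP signal compared with cytokine alone wells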
BJ [5] = assay: cells; format: functional, cell-based; conditions: Homo sapiens
[6] = target: T1, Ubiquitin-conjugating enzyme E2 N; format: functional; remark: listed apart in the source
BJ [7] = assay: cytotoxicity toward Ras-transformed BJeLR fibroblasts, dose response, cell-based, alamar blue fluorescence, cherrypicked samples (AID 2631); format: functional; conditions: Homo sapiens;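 further: confirmatory dose-response assay in RAS-dependent BJ fibroblasts engineered with TERT, LT and ST, with cytotoxicity read by fluorescence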
[8] = cytotoxicity toward DRD oncogenic fibroblasts, dose response, cell-based, non-viral oncogenic, luminescence (AID 1934); format: functional; conditions: Homo sapiens
BJ [9] = assay: cytotoxicity toward BJ-TERT-LT-ST fibroblasts, dose response, cell-based, RAS-independent, luminescence (AID 1935); format: functional; conditions: Homo sapiens;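 further: BJ fibroblasts immortalized with TERT plus LT and ST oncogenes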
Bcl-2-related protein A1 = target: T4, Bcl-2-related protein A1 (Mus musculus, UniProt Q07440); format: functional;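 further: confirmatory dose–response counterscreen on Bfl-1, used to check hits from a UBC13 polyubiquitin inhibitor campaign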
T4 sequence (Q07440 whole entry): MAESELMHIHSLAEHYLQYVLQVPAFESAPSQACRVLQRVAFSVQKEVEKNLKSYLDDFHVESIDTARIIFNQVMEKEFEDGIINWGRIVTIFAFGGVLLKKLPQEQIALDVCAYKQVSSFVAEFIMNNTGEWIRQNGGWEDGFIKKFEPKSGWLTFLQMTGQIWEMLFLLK

BJ [10] = assay: cytotoxicity toward BJ-TERT fibroblasts, dose response, cell-based, RAS-independent, luminescence (AID 1933); format: functional; conditions: Homo sapiens
[11] = target: Alkaline phosphatase, placental type (Homo sapiens, UniProt P05187); assay: PLAP enzyme inhibitors, confirmation, biochemical, luminescence (AID 1512); format: functional
[12] = target: Intestinal-type alkaline phosphatase (Homo sapiens, UniProt P09923); assay: inhibition of human intestinal alkaline phosphatase – biochemical, dose response (AID 488876); format: functional
[13] = target: Intestinal-type alkaline phosphatase (Mus musculus, UniProt P24822); assay: PubChem AID 488785; format: functional
NADPH oxidase 1 [14] = target: T5, NADPH oxidase 1 (Homo sapiens, UniProt Q9Y5S8); assay: ROS production inhibition in HEK293 cells, late-stage follow-up, counter-screen for NOX1 inhibitor project, cell-based, IC50, set 2 (AID 435002); format: functional
T5 sequence (Q9Y5S8 whole entry): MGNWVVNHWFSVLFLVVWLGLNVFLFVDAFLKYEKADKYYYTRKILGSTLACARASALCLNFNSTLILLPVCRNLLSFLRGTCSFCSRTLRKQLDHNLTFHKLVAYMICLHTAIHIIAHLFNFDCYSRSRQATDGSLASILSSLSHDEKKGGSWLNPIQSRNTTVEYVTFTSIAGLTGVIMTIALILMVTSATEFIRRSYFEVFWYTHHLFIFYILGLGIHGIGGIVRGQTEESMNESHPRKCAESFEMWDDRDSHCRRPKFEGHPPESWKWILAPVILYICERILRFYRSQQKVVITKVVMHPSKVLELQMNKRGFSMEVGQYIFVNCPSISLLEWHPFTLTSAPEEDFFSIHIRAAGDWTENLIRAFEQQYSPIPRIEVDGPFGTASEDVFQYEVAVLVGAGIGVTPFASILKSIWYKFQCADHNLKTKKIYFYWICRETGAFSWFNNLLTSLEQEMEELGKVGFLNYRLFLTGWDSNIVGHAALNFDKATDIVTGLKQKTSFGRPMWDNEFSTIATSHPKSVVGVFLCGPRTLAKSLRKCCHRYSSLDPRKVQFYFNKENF

NADPH oxidase 1 [15] = target: T5, NADPH oxidase 1; format: functional, cell-based
NADPH oxidase 3 = NADPH oxidase 3 (Homo sapiens, UniProt Q9HBY0); assay: PubChem AID 435013
NADPH oxidase 2 = NADPH oxidase 2 (Homo sapiens, UniProt P04839); assay: PubChem AID 435013
[16] = target: Glutathione S-transferase omega-1 (Homo sapiens, UniProt P78417); assay: GSTO1 inhibitor potency, recombinant enzyme, late-stage follow-up, biochemical, SE-Rh probe, in-gel fluorescence, powder samples, set 2 (AID 463142); format: functional
Sequence of Glutathione S-transferase omega-1 (P78417 whole entry): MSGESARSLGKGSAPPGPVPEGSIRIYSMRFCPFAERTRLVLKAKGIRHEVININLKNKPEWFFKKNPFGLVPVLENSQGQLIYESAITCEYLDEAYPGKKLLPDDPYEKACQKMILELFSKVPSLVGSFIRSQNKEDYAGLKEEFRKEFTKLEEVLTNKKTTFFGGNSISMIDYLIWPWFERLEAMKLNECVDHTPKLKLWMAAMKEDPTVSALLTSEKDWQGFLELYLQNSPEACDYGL

Sequence of Ephrin type-A receptor 4 (Q03137 whole entry): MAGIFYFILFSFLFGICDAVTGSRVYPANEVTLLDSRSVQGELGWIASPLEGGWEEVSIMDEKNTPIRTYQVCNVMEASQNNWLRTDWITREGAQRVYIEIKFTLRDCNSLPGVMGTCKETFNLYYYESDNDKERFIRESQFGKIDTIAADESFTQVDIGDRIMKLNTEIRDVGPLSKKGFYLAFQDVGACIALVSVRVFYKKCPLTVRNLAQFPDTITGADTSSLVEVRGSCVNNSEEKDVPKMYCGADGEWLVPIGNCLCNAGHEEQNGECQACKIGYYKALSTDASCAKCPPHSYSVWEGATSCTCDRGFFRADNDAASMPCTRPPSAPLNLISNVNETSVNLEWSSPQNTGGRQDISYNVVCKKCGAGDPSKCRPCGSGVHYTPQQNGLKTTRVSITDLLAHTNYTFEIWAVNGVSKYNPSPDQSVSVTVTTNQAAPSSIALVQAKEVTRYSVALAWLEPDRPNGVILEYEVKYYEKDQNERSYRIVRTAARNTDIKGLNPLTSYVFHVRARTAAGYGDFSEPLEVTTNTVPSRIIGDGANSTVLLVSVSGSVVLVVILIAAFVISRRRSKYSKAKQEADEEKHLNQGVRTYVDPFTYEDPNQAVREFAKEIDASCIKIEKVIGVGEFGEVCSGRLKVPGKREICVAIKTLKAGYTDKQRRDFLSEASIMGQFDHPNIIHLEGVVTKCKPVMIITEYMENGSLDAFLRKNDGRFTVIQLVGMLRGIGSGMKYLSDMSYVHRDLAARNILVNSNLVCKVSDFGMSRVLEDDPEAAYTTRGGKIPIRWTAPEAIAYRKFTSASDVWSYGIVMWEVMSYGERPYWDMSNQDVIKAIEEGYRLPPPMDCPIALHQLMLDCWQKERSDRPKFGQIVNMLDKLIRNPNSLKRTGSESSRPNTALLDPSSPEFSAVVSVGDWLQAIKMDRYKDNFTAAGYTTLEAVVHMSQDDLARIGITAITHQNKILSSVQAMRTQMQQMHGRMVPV
Sequence of NADPH oxidase 2 (P04839 whole entry): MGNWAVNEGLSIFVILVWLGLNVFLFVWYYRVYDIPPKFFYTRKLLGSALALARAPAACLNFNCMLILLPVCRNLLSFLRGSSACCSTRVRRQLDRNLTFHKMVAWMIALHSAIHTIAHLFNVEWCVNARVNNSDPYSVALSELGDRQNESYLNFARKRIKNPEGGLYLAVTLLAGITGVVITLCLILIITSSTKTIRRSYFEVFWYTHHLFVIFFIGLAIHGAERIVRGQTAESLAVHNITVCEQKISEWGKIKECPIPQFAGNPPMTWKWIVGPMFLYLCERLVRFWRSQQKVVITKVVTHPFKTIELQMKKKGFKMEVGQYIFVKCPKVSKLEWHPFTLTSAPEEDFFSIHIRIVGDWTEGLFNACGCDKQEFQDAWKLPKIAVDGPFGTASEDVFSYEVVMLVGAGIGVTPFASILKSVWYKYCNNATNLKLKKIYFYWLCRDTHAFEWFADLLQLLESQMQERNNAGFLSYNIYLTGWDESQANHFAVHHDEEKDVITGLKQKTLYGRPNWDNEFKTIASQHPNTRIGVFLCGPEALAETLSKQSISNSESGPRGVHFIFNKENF
Sequence of NADPH oxidase 3 (Q9HBY0 whole entry): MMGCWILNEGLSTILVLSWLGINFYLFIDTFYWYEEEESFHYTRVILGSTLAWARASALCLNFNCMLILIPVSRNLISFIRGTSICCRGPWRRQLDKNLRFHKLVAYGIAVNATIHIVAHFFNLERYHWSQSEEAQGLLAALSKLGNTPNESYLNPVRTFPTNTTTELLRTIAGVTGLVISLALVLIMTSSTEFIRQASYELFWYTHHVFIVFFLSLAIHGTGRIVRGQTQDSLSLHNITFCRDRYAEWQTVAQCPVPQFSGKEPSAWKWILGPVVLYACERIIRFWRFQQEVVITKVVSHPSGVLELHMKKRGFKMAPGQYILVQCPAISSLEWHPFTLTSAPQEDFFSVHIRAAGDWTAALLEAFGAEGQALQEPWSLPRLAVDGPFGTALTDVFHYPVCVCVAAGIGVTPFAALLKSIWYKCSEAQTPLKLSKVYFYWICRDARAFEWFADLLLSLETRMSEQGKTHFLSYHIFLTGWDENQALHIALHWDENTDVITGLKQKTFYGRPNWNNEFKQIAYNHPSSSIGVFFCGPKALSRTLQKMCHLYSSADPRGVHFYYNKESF
Sequence of Intestinal-type alkaline phosphatase (Mus musculus, UniProt P24822) (P24822 whole entry): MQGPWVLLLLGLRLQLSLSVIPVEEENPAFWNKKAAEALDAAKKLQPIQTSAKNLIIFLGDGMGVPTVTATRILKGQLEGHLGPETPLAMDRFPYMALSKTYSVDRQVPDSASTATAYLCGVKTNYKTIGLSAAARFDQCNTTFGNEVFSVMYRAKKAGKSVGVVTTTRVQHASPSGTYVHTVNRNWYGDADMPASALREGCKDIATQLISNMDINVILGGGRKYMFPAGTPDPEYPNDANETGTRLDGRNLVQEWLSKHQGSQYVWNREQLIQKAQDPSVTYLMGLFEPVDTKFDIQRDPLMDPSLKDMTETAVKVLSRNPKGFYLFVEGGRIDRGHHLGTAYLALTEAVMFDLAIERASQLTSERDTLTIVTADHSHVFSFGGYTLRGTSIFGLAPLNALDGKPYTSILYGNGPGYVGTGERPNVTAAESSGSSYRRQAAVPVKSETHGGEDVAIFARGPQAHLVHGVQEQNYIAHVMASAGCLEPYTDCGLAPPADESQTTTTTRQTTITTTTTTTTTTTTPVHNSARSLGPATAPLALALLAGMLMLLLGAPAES
Sequence of Alkaline phosphatase, placental type (P05187 whole entry): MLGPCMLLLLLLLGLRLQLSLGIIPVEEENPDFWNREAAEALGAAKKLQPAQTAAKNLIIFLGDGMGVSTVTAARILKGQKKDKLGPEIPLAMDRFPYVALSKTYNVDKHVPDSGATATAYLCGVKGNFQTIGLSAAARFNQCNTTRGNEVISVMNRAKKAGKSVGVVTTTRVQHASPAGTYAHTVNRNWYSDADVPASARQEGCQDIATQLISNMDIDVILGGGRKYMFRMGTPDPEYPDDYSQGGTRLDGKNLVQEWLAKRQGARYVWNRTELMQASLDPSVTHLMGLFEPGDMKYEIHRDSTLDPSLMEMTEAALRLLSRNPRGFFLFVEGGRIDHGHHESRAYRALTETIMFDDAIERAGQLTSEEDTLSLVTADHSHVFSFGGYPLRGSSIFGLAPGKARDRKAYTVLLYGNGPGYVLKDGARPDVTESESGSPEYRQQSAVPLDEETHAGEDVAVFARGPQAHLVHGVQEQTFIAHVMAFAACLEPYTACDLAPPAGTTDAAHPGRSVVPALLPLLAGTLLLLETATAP
Sequence of G-protein coupled receptor 55 (Q9Y2T6 whole entry): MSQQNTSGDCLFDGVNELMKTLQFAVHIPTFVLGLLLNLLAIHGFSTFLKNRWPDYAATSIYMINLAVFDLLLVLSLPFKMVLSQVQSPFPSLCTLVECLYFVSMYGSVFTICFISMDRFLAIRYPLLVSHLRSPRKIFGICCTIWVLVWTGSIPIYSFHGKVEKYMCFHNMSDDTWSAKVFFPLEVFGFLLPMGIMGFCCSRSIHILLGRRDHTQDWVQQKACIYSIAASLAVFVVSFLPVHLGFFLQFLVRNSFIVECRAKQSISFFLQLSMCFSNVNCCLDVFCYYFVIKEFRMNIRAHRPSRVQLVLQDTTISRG
Sequence of Intestinal-type alkaline phosphatase (Homo sapiens, UniProt P09923) (P09923 whole entry): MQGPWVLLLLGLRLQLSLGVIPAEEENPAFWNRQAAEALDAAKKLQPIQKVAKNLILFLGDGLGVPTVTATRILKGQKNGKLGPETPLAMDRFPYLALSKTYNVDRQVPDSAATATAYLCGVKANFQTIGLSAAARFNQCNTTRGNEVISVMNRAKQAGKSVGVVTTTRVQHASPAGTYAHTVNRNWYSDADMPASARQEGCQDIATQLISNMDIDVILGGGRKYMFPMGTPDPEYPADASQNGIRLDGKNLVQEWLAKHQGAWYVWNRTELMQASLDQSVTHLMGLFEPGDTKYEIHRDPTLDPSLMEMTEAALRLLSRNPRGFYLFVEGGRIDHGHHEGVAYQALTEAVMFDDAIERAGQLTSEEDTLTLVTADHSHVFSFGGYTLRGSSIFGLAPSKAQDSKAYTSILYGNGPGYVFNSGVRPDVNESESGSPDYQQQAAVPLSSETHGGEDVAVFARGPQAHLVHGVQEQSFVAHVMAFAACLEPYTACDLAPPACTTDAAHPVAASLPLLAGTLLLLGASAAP

SMILES: COc1ccc(OC)c2sc(N(CCCN(C)C)C(=O)c3ccc(S(=O)(=O)N4CCc5ccccc5C4)cc3)nc12
IC50 [2]: 2.47 µM (active) | EC50 [3]: > 100 µM (inactive) | EC50 [4]: 5.01 µM (active) | AC50 (INS1): 1.75 µM (active) | EC50 (BJ [5]): 2.43 µM (active) | IC50 [6]: 1.27 µM (active) | EC50 (BJ [7]): 0.289 µM (active) | EC50 [8]: 1.27 µM (inconclusive) | EC50 (BJ [9]): 0.432 µM (inconclusive) | IC50 (Bcl-2-related protein A1): 8.51 µM (active) | EC50 (BJ [10]): 0.357 µM (inconclusive)

SMILES: Oc1c(Br)cc(/C=N/Nc2c(Cl)cncc2Cl)cc1Br
IC50 (NADPH oxidase 1 [14]): 10 µM (active) | IC50 (NADPH oxidase 1 [15]): 0.43 µM (active) | IC50 (NADPH oxidase 3): > 50 µM (inactive) | IC50 (NADPH oxidase 2): > 50 µM (inactive)

SMILES: O=C(CCl)N(CCCCCNC(=O)C(F)(F)F)c1ccc([N+](=O)[O-])cc1
IC50 [16]: 0.034 µM (active)

The next lines start with the values.

EC50 [1]: 0.731 µM (active) | IC50 (Ephrin type-A receptor 4): 5.34 µM (active)
SMILES: CCCCN1C(=O)/C(=C/C=C2\N(C)c3ccccc3C2(C)C)SC1=S

IC50 [11]: > 100 µM (inactive) | IC50 [12]: 9.59 µM (active) | IC50 [13]: 7.54 µM (active)
SMILES: C=C(C)c1cccc(C(C)(C)NC(=O)NC(c2ccccc2)c2ccc(OC)cc2)c1 (stereo unspecified)
